According to publication PMC12621184, “Synthesis and Pharmacological Characterization of Nociceptin/Orphanin FQ Dimeric Ligands” (Journal of Medicinal Chemistry, 2025):
Several values for one entry are separate records, joined by “and”; a condition that tells them apart may be missing. Equal entries are not always repeated. Bridge positions count the residues as written; N and C are the ends. Peptide text beside a SMILES is read from it. I, II: the chains in the order shown.

Columns and labels:
human NOP = human NOP (Homo sapiens, UniProt P41146); experiment: NOP receptor–G protein interaction BRET assay; format: biochemical; parameters: expressed in transfected cells; host or cells: membranes of HEK293 cells stably coexpressing NOP-RLuc and Gβ1-RGFP; conditions: N = 5 experiments in duplicate
Method in brief: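 Membranes (3 μg protein) from HEK293 cells stably coexpressing NOP-RLuc and Gβ1-RGFP were tested with 2 μM Prolume Purple coelenterazine at room temperature. BRET ratios (510/405 nm) were averaged over 10 min, vehicle-subtracted and normalized to N/OFQ maximal effect.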

[1] = test system: mouse vas deferens from NOP(+/+) mice; experiment: Electrically stimulated mouse vas deferens bioassay, NOP(+/+) tissues
Description: This study was approved by the Animal Welfare Body of the University of Ferrara and by the Italian Ministry of Health (authorization number CBCC2.N.BXI). Experiments were performed on an isolated mouse vas deferens. All experiments were conducted with mice bred and housed in the University of Ferrara’s animal facility under specific pathogen-free conditions (SPF). All mice were housed in cages with individual ventilation, with a constant temperature of 21 °C, 60% humidity, and a 12 h light/dark cycle. Food and water were provided ad libitum. CD-1 NOP(+/+) and CD-1 NOP(−/−) male mice, aged 9 to 12 months, were used. Animals were sacrificed on the day of the experiment with CO2 overdose. Bioassay experiments were performed as previously described. The tissues were suspended in 5 mL organ bath containing Krebs solution (NaCl 118.5 […]). The Krebs solution was oxygenated with 95% O2 and 5% CO2 and the temperature set at 33 °C with a resting tension of 0.3 g applied to the tissues. Tissues were stimulated through two platinum electrodes with a supramaximal rectangular pulse of 1 ms duration, 0.05 Hz frequency, and 80 V of amplitude. The electrically evoked contractions were measured isotonically by means of Basile strain gauge transducers (Basile, IT) and a recorder with a Power Lab 8 instrument (ADInstruments, CO, U.S.). Following an equilibration period of approximately 60 min, the contractions induced by electrical field stimulation were stable. At this time, cumulative concentration response curves were carried out.
Concentration-response curves to agonists were analyzed by a four-parameter logistic nonlinear regression model: Effect = baseline + (E max – baseline)/(1 + 10^((logEC50–log[ligand])slope)). […] Experimental data were expressed as mean ± sem of at least 5 experiments. Potency values were expressed as the mean and CL95%. In vitro E max values were analyzed by one-way ANOVA, while in vivo latency data were evaluated by one-way ANOVA followed by Dunnett’s post hoc test. The proportion of mice losing the righting reflex was compared by Fisher’s exact test performed on raw data. GraphPad Prism 10.0 software was used for all of the analyses. The terminology employed is consistent with the International Union of Basic and Clinical Pharmacology (IUPHAR) recommendations. ,

human δ opioid receptor = biological target: T1, human δ opioid receptor (Homo sapiens, UniProt P41143); experiment: Calcium mobilization assay, CHO cells with δ receptor and chimeric G protein; format: cell-based; conditions: CHO cells coexpressing human δ receptor and GαqG66Di5; 5 experiments in duplicate; read-out: calcium mobilization at δ receptor, concentration up to which inactive
T1 construct: expressed in transfected cells
Description: Chinese hamster ovary (CHO) cells stably coexpressing the human NOP, μ, or κ opioid receptors and the Gαqi5 protein or the human δ and the GαqG66Di5 protein were used in this assay. , Cells were cultured in DMEM/F-12 (1:1) medium supplemented with 10% FBS, 2 mM L-glutamine, […], 100 IU/mL penicillin, and 100 IU/mL streptomycin. Cells were maintained at 37 °C in a humidified atmosphere with 5% CO2 and were seeded at 50 000 cells/well into 96-well black, clear-bottom plates 24 h before test. Loading for 45 min with a solution consisting of HBSS supplemented with 2.5 mM probenecid, 3 μM Fluo-4 AM, and 0.01% pluronic acid ensures the calcium-sensitive dye (Fluo-4) reaches the needed concentration inside the cell, while the exchange of the solution with 100 μL/well of buffer consisting of HBSS with 20 mM HEPES, 2.5 mM probenecid, and 500 μM Brilliant Black allows for fluorescence background to decrease. Serial dilutions of ligands were prepared in HBSS buffer with 20 mM HEPES and 0.02% bovine serum albumin (BSA) to minimize the ligands’ stickiness to plasticware. The automated microplate reader FlexStation II (Molecular Devices, CA, US) was employed at 37 °C to detect changes in fluorescence intensity. The effects of all compounds were expressed as the maximum change in percentage over the baseline fluorescence measured in samples treated with vehicles. […]

T1 sequence (P41143 whole entry): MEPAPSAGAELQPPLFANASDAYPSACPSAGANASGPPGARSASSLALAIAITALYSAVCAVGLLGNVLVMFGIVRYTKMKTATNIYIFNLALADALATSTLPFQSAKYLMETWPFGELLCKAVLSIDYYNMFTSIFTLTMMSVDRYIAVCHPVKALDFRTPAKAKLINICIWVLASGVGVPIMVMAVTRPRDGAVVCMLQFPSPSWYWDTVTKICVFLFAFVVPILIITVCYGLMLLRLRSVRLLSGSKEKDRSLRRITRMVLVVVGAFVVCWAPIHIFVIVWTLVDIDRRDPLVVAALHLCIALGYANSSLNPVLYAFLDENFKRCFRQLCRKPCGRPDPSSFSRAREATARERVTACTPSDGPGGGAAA

C[C@H](NC(=O)CNC(=O)[C@@H](NC(=O)[C@H](Cc1ccccc1)NC(=O)CNC(=O)CNC(=O)[C@@H](N)Cc1ccccc1)[C@@H](C)O)C(=O)N[C@@H](CCCNC(=N)N)C(=O)N[C@@H](CCCCN)C(=O)N[C@@H](CO)C(=O)N[C@@H](C)C(=O)N[C@@H](CCCNC(=N)N)C(=O)N[C@@H](CCCCN)C(=O)N[C@@H](CSSC[C@H](NC(=O)[C@H](CCCCN)NC(=O)[C@H](CCCNC(=N)N)NC(=O)[C@H](C)NC(=O)[C@H](CO)NC(=O)[C@H](CCCCN)NC(=O)[C@H](CCCNC(=N)N)NC(=O)[C@H](C)NC(=O)CNC(=O)[C@@H](NC(=O)[C@H](Cc1ccccc1)NC(=O)CNC(=O)CNC(=O)[C@@H](N)Cc1ccccc1)[C@@H](C)O)C(=O)N[C@@H](C)C(=O)N[C@@H](CC(N)=O)C(=O)N[C@@H](CCC(N)=O)C(N)=O)C(=O)N[C@@H](C)C(=O)N[C@@H](CC(N)=O)C(=O)N[C@@H](CCC(N)=O)C(N)=O [1h, [[Cys^14]N/OFQ-NH2]2] (I: H-FGGFTGARKSARKCANQ-NH2 / II: H-FGGFTGARKSARKCANQ-NH2; disulfide I:14-II:14; N-terminus assumed)
NOP–G protein interaction E max ± sem (human NOP; effects normalized to N/OFQ-NH2 (E max = 1), mean ± sem): 0.80 ± 0.08
EC50 (human NOP; membranes from HEK293 cells coexpressing NOP-RLuc and Gβ1-RGFP, room temperature, mean (CL95%), read-out: NOP–G protein interaction pEC50 (CL95%) (converted)): < 1 nM and 0.123 nM
potency (pEC50) for inhibition of electrically induced contractions ([1]; mVD from CD-1 NOP(+/+) mice, 33 °C, mean (CL95%), 5 experiments): 6.79 (6.02–7.56)
decrease in mVD potency compared to N/OFQ ([1]; mVD, vs N/OFQ): approximately 3 fold
kinetics of action in mVD (in words) ([1]; onset and reversibility upon washout): fully and rapidly reversible upon washout
EC50 (human δ opioid receptor): > 1000 nM
